Data: patent publication EP1561465A2, “Methods of use of fluoroquinolone compounds against bacteria” (LG Life Sciences, Ltd., priority 1999, dated 2001)
≈ marks a conversion by molar mass, not a printed value.

Key:
Assay in all cases: MIC by agar dilution (NCCLS), 322 nosocomial Gram negative isolates, Athens 1998
Type in all cases: cell-based
[1] = test system: Pseudomonas aeruginosa; conditions: n = 57 isolates
[2] = test system: Escherichia coli; conditions: Escherichia coli; n = 57 isolates
[3] = test system: Klebsiella pneumoniae; conditions: n = 56 isolates; for MIC50 / MIC90: Klebsiella pneumoniae
[4] = test system: Proteus mirabilis; conditions: n = 57 isolates; for MIC50 / MIC90: Proteus mirabilis
[5] = test system: Enterobacter spp.; conditions: n = 57 isolates; for MIC50 / MIC90: Enterobacter; for MIC50: read-out: MIC50; for MIC90: read-out: MIC90
[6] = test system: Acinetobacter spp.; conditions: n = 38 strains; for MIC50 / MIC90: Acinetobacter

MIC50 [1] | MIC90 [1] | MIC50 [2] | MIC90 [2] | MIC50 [3] | MIC90 [3] | MIC Range [3] | MIC50 [4] | MIC90 [4] | MIC Range [4] | MIC50 [5] | MIC90 [5] | MIC Range [5] | MIC50 [6] | MIC90 [6] | MIC Range [6] | SMILES
1 µg/mL (≈ 2.61 µM) | 16 µg/mL (≈ 41.7 µM) | ≤ 0.03 µg/mL | ≤ 0.03 µg/mL | 0.03 µg/mL (≈ 0.0782 µM) | 0.06 µg/mL (≈ 0.156 µM) | ≤0.03 to 2 µg/mL | 0.03 µg/mL (≈ 0.0782 µM) | 0.25 µg/mL (≈ 0.652 µM) | ≤0.03 to 4 µg/mL | 0.06 µg/mL (≈ 0.156 µM) | 4 µg/mL (≈ 10.4 µM) | ≤0.03 to 16 µg/mL | 2 µg/mL (≈ 5.22 µM) | 8 µg/mL (≈ 20.9 µM) | 0.06 to 16 µg/mL | C[C@@H](O)[C@H]1C(=O)N2C(C(=O)O)=C(S[C@@H]3CN[C@H](C(=O)N(C)C)C3)[C@H](C)[C@H]12 [Meropenem]
8 µg/mL (≈ 15.5 µM) | > 64 µg/mL | 4 µg/mL (≈ 7.73 µM) | 64 µg/mL (≈ 124 µM) | 32 µg/mL (≈ 61.8 µM) | > 64 µg/mL |  | 1 µg/mL (≈ 1.93 µM) | > 64 µg/mL |  | 16 µg/mL (≈ 30.9 µM) | > 64 µg/mL |  | > 64 µg/mL | > 64 µg/mL |  | CCN1CCN(C(=O)N[C@@H](C(=O)N[C@@H]2C(=O)N3[C@@H]2SC(C)(C)[C@@H]3C(=O)O)c2ccccc2)C(=O)C1=O [Piperacillin]
